# Assay results from patent publication US20210128567A1, “Compositions and Methods for Cognitive, Immune and Digestive Support in Patients with Autism Spectrum Disorder” (FLAASK, LLC, priority 2017, published 2021).
# Tested on: children with confirmed ASD diagnoses
# Assay: Outcome of therapies received prior to the subject treatment, as reported by parents
# Assay type: in vivo, human
Compound,"result of prior 5-metylhydrofolate and Metylcobalamin B-12 (patient one, given together)","result of prior treatment by Valtrex and Viferon (patient one, given together)","result of prior Valtrex, according to parents the most effective prior therapy (patient two)"
CN1c2c(nc(N)[nH]c2=O)NCC1CNc1ccc(C(=O)N[C@@H](CCC(=O)O)C(=O)O)cc1 (stereo partly shown) [5-metylhydrofolate],more self-dependence,–,–
"CC(C)[C@H](N)C(=O)OCCOCn1cnc2c(=O)[nH]c(N)nc21 [Valtrex, valacyclovir]",–,"they are getting sick more rarely, learned to swim and to communicate through PECS cards","they became more communicative, attempts to speak appeared, became calmer, eye contact has improved"
Metylcobalamin B-12,more self-dependence,–,–
